Experimental data: patent publication US12472226B2, “Cell-permeable peptide” (priority 2019, dated 2025)
Non-standard residues stand in square brackets, D forms with d. No end group written: not given here. *: point of attachment. FITC = O=C1OC2(c3ccc(O)cc3Oc3cc(O)ccc32)c2ccc(NC(=S)*)cc21; Ahx = NCCCCCC(=O)O

Key:
[1] = system: A549 cells; experiment: Test of inducing cell-death in vitro (Calcein-AM/PI dead cell rate); format: cell-based, human; conditions: for dead cell rate: 50 μg/mL
Text: (§1) Human fibrosarcoma-derived HT-1080 cells (HT-1080 cells, JCRB cell bank) were used as cancer cells in the test for monitoring changes in mitochondrial membrane potential. HT-1080 cells, human osteosarcoma cell line Hos cells (Hos cells, JCRB cell bank), human histiocytic lymphoma/macrophage U937 cells (U937 cells, JCRB cell bank), human myeloid leukemia HL-60 cells (HL-60 cells, JCRB cell bank), acute monocytic leukemia THP-1 cells (THP-1 cells, JCRB cell bank), human alveolar basal epithelial adenocarcinoma cell A549 cells (A549 cells, Cell Resource Center for Biomedical Research, Institute of Development, Aging and Cancer, Tohoku University), human pancreatic carcinoma cells (MIA Paca 2 cells, Cell Resource Center for Biomedical Research, Institute of Development, Aging and Cancer, Tohoku University) and well differentiated human liver carcinoma-derived cell line HuH7 cells (HuH7 cells, Cell Resource Center for Biomedical Research, Institute of Development, Aging and Cancer, Tohoku University) were used as cancer cells in an in vitro cell-death induction test of cancer cells and a nuclear transport test of Example 2. Normal human gingival fibroblast cells Gin-1 (Gin-1 cells, DS Pharma Biomedical) were used as a control. The above-described cells were each inoculated into a 96-well culture plate (Falcon) at 5,000 cells/[…] and subjected to the following tests.
(§2) The peptide of SEQ ID NO: 1 labeled with FITC (Example 2) was used for the test of inducing cell-death in vitro in cancer cells. It was prepared the test example to which 100 μL of Example 2 and further 10% FBS were added and cultured for 9 days under conditions of 200 μL of serum-supplemented medium (Alpha modification of Eagle's MEM (α-MEM) (Thermo Fisher Scientific)+10% FBS). Furthermore, it was also produced the test example that was cultured for 21 days with the whole amount of Example 2-supplemented medium replaced every 7 days. As a control, the cells were cultured in a serum-supplemented medium (α-MEM+10% FBS) without addition and were used. A supernatant was removed after the completion of the culture. The cells were washed once with PBS and stained in PBS to which a fluorescent dye for living cell staining Calcein-AM (DOJINDO LABORATORIES) (final concentration: 0.1 μg/mL) and a fluorescent dye for dead cell staining Propidium Iodide (PI) (DOJINDO LABORATORIES) (final concentration: 0.3 μg/mL) were added, at 37° C. in a 5% CO2 cell incubator for 30 minutes. The living cells and dead cells were separately stained with Calcein-AM and PI, respectively and imaged with the confocal laser scanning microscope LSM800. Next, the dead cell rate relative to the number of total cells was analyzed using ImageJ.
(§3) The amount of administration of Example 2 was adjusted to 50 μg/mL and was used for 9-, 16- or 23-day administration test in the A549, MIA Paca2 or HuH7 cells by the same method as in Test Example 2A above. The cell staining and subsequent analyses of the dead cell rate relative to the number of total cells were performed in the same manner as Test Example 2A above.

[2] = system: HuH7 cells; experiment: as above; format: cell-based, human
Text: as §1, §2, §3

[3] = system: MIA Paca2 cells; experiment: as above; format: cell-based, human; conditions: for dead cell rate: 50 μg/mL
Text: as §1, §2, §3

[4] = system: A549 cells; experiment: Test on nuclear transport (confocal Z scan, DAPI); format: cell-based, human; conditions: 50μ/mL, 23 days
Text: as §1
(§4) Similarly, 50μ/mL of Example 2 was added to the A549, MIA Paca2 and HuH7 cells. The cells were cultured for 23 days and then scanned by the Z scan technique using the confocal laser scanning microscope LSM800 after dyed with DAPI. FIG. 5B is each photograph of XY, XZ and YZ cross sections that were merged with Example 2 (green) and DAPI (blue) in the variety of cancer cells. As a result, the color of the images merged with Example 2 and DAPI dye took on light blue.

[5] = system: HuH7 cells; experiment: Test on nuclear transport (confocal Z scan, DAPI); format: cell-based, human; conditions: 50μ/mL, 23 days
Text: as §1, §4

[6] = system: MIA Paca2 cells; experiment: Test on nuclear transport (confocal Z scan, DAPI); format: cell-based, human; conditions: 50μ/mL, 23 days
Text: as §1, §4

[7] = target: T1, CD13 on HT-1080 cells (Homo sapiens, UniProt P15144); experiment: Binding test to cell membrane (confocal, CD13 co-staining); format: cell-based; conditions: 1 μg/100 μL, 4° C., 1 hour
T1 construct: endogenous in cells; host or cells: HT-1080 cells
Description: (§5) A PE-labeled human CD13 antibody (Clone: WM-15 Biolegend) ([…]) and Example 2 (1 μg/100 μL) were added to each of the cells (500,000 cells/[…]), and the cells were stained at 4° C. for 1 hour. After the cells were washed with PBS, CD13 expression of each cell and binding site of Example 2 were observed as the standard of the fluorescence intensity of the HT-1080 cells using the confocal laser scanning microscope LSM800. The expression of CD13 (red) was strongest and the luminescence of Example 2 (green) was also strong in the HT-1080 and Gin-1 cells. […] Further, the same phenomenon about CD13 expression was also recognized in the U937, HL-60, THP-1 and Hos cells (not shown).

[8] = target: T2, CD13 on Gin-1 cells (Homo sapiens, UniProt P15144); experiment: as above; format: cell-based; conditions: 1 μg/100 μL, 4° C., 1 hour
T2 construct: endogenous in cells; host or cells: Gin-1 cells
Description: as §5

[9] = system: HT-1080 cells; experiment: Test on nuclear transport (confocal, DAPI); format: cell-based, human; conditions: 50 μg/mL; for intracellular localization: HT-1080 cells
Text: as §1
The cells were cultured in 200 μL of serum-supplemented medium (α-MEM+10% FBS) to be 50 μg/mL at the final concentration of Example 2 for 3 or 9 days. The cell-death was not detected in the culture on day 3. On the contrary, since the cell-death was detected in the culture on day 9, the day 9 culture as described above was used for the tests. The above each cell was separated and transferred to a Cellview glass bottom dish (35×10 mm) (Greiner). The cells on day 3 were fixed with 10% formalin-ethanol and then dyed with DAPI. The cells on day 9 were dyed with DAPI without fixation.
FIG. 4 is the photographs of Example 2 (green), DAPI (blue), overlay images of Example 2 (green) and DAPI (blue) and differential interference image on the HT-1080 cells on day 3 or 9.

T2 sequence (P15144 whole entry): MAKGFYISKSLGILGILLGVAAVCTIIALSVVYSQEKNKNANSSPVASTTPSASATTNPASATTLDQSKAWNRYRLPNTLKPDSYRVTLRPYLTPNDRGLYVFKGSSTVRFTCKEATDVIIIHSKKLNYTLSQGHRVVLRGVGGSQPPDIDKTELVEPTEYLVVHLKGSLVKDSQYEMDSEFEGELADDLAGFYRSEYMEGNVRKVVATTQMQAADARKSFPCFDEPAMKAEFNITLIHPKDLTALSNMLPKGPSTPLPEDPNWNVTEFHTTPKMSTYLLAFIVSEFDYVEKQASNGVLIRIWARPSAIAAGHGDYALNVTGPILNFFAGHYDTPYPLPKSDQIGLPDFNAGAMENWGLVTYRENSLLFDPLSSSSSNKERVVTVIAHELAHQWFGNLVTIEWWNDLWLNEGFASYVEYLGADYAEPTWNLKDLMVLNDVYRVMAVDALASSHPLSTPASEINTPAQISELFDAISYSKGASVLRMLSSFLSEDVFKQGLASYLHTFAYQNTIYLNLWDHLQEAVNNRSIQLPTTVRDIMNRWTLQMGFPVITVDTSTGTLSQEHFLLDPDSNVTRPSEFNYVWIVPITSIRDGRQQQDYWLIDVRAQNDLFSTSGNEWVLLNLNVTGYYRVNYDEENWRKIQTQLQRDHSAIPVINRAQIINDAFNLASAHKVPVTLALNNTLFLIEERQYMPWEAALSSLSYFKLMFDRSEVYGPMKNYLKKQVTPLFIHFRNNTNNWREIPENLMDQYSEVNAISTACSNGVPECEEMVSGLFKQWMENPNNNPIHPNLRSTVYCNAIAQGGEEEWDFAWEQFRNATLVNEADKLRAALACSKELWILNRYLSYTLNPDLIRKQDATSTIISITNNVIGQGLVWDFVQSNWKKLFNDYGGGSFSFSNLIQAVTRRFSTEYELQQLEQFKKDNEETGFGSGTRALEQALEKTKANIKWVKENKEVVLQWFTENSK
T1 sequence (P15144 whole entry): as above

Example 2: peptide of SEQ ID NO: 1 labeled with FITC, bound via an Ahx linker at the N-terminus ({FITC}-[Ahx]KDNRGNLLQCVCTGNGRGEWKC; cysteine pairing not given here)
increase in the dead cell rate vs control ([1]; 50 μg/mL, 9, 16 or 23 days): significant difference was recognized at the level of 1% | dead cell rate ([1]; day 9): ~50% | dead cell rate ([1]; day 16): ~60% | dead cell rate ([1]; day 21): ≥ 80% | effect of administration (dead cell rate) on day 9 compared with later days ([2]; 50 μg/mL): substantially same as that of days 16 and 23 | increase in the dead cell rate vs control ([2]; 50 μg/mL, 9, 16 or 23 days): significant difference was recognized at the level of 1% | increase in the dead cell rate vs control ([3]; 50 μg/mL, 9, 16 or 23 days): significant difference was recognized at the level of 1% | dead cell rate ([3]; day 9): about 10% | dead cell rate ([3]; day 16): ~50% | dead cell rate ([3]; day 23): about 80% | intracellular localization [4]: transfer to a nucleus and bind to a chromosome DNA | intracellular localization [5]: transfer to a nucleus and bind to a chromosome DNA | intracellular localization [6]: transfer to a nucleus and bind to a chromosome DNA | colocalization with CD13 (overlay images) [7]: colocalized | luminescence of the peptide (green) on cells [7]: strong | colocalization with CD13 (overlay images) [8]: colocalized | luminescence of the peptide (green) on cells [8]: strong | cell-death in the culture ([9]; day 3): not detected | cell-death in the culture ([9]; day 9): detected | intracellular localization ([9]; day 3): present at a cytoplasm | intracellular localization ([9]; day 9): transferred to a nucleus and bound to a chromosome DNA
